Columns and labels:
Mus musculus [1] = test: Antiobesity activity in diet-induced obese C57Bl/6 mouse assessed as loss of epididymal fat mass at 20 mg/kg/day, po for 4 weeks administered with high-fat diet; type: functional
Mus musculus [2] = test: Antiobesity activity in diet-induced obese C57Bl/6 mouse assessed as reduction in triglyceride level at 20 mg/kg/day, po for 4 weeks administered with high-fat diet (reference value: 0.96 +/- 0.14 mM); type: functional
[3] = Tmax in Sprague-Dawley rat at 20 mg/kg, po; type: ADME, organism-based; parameters: dose 20 mg/kg, route oral; details: in vivo
Mus musculus [4] = test: Antiobesity activity in diet-induced obese C57Bl/6 mouse assessed as reduction in fasting blood glucose at 20 mg/kg/day, po for 4 weeks administered with high-fat diet (reference value: 4.88 +/- 0.75 mM); type: functional
Mus musculus [5] = test: Antiobesity activity in diet-induced obese C57Bl/6 mouse assessed as change in insulin level at 50 mg/kg/day, po for 4 weeks administered with high-fat diet (reference value: 4.31 +/- .82 mU); type: functional
[6] = Cmax in Sprague-Dawley rat at 5 mg/kg, iv; type: ADME, organism-based; parameters: dose 5 mg/kg, route intravenous; details: in vivo
Mus musculus [7] = test: Antiobesity activity in diet-induced obese C57Bl/6 mouse assessed as reduction in body weight at 20 mg/kg/day, po for 4 weeks administered with high-fat diet; type: functional; parameters: scale not given: the % may be the effect or the level left
Mus musculus [8] = test: Antiobesity activity in diet-induced obese C57Bl/6 mouse assessed as reduction in LDL level at 20 mg/kg/day, po for 4 weeks administered with high-fat diet (reference value: 0.13 +/- 0.02 mM); type: functional
[9] = AUC (0 to t) in Sprague-Dawley rat at 5 mg/kg, iv; type: ADME, organism-based; parameters: dose 5 mg/kg, route intravenous; details: plasma
Mus musculus [10] = test: Antiobesity activity in diet-induced obese C57Bl/6 mouse assessed as reduction in LDL level at 50 mg/kg/day, po for 4 weeks administered with high-fat diet (reference value: 0.13 +/- 0.02 mM); type: functional
Mus musculus [11] = test: Toxicity in diet-induced obese C57Bl/6 mouse assessed as change in food intake at 20 mg/kg/day, po for 4 weeks administered with high-fat diet; type: organism-based; parameters: route oral; details: in vivo, 672 h
[12] = Half life in Sprague-Dawley rat at 20 mg/kg, po; type: ADME, organism-based; parameters: dose 20 mg/kg, route oral; details: in vivo
[13] = Total clearance in Sprague-Dawley rat at 5 mg/kg, iv; type: ADME, organism-based; parameters: dose 5 mg/kg, route intravenous; details: in vivo
Mus musculus [14] = test: Toxicity in diet-induced obese C57Bl/6 mouse assessed as change in ALT level at 50 mg/kg/day, po for 4 weeks administered with high-fat diet (reference value: 29.6 +/- 8.29 U/L); type: organism-based; parameters: route oral; details: in vivo, 672 h
Mus musculus [15] = test: Antiobesity activity in diet-induced obese C57Bl/6 mouse assessed as loss of epididymal fat mass at 50 mg/kg/day, po for 4 weeks administered with high-fat diet; type: functional
Mus musculus [16] = test: Antiobesity activity in diet-induced obese C57Bl/6 mouse assessed as reduction in HOMA-IR value at 20 mg/kg/day, po for 4 weeks administered with high-fat diet (reference value: 0.94 +/- 0.23 no_unit); type: functional
Mus musculus [17] = test: Antiobesity activity in diet-induced obese C57Bl/6 mouse assessed as loss of liver weight at 20 mg/kg/day, po for 4 weeks administered with high-fat diet; type: functional
Mus musculus [18] = test: Antiobesity activity in diet-induced obese C57Bl/6 mouse assessed as reduction in triglyceride level at 50 mg/kg/day, po for 4 weeks administered with high-fat diet (reference value: 0.96 +/- 0.14 mM); type: functional
Mus musculus [19] = test: Antiobesity activity in diet-induced obese C57Bl/6 mouse assessed as reduction in FFA level at 50 mg/kg/day, po for 4 weeks administered with high-fat diet (reference value: 25.07 +/- 3.49 ng/L); type: functional
[20] = Tmax in Sprague-Dawley rat at 5 mg/kg, iv; type: ADME, organism-based; parameters: dose 5 mg/kg, route intravenous; details: in vivo
Mus musculus [21] = test: Antiobesity activity in diet-induced obese C57Bl/6 mouse assessed as reduction in hepatic triglyceride level at 20 mg/kg/day, po for 4 weeks administered with high-fat diet by Oil Red O staining-based histological method; type: functional; parameters: scale not given: the % may be the effect or the level left
Mus musculus [22] = test: Antiobesity activity in diet-induced obese C57Bl/6 mouse assessed as reduction in hepatic triglyceride level at 50 mg/kg/day, po for 4 weeks administered with high-fat diet by Oil Red O staining-based histological method; type: functional; parameters: scale not given: the % may be the effect or the level left
Mus musculus [23] = test: Toxicity in diet-induced obese C57Bl/6 mouse assessed as change in AST level at 20 mg/kg/day, po for 4 weeks administered with high-fat diet (reference value: 128.00 +/- 20.59 U/L); type: organism-based; parameters: route oral; details: in vivo, 672 h
Rattus norvegicus = test: Volume of distribution in Sprague-Dawley rat at 20 mg/kg, po; type: ADME, organism-based; parameters: dose 20 mg/kg, route oral; details: in vivo
Mus musculus [24] = test: Antiobesity activity in diet-induced obese C57Bl/6 mouse assessed as reduction in fasting blood glucose at 50 mg/kg/day, po for 4 weeks administered with high-fat diet (reference value: 4.88 +/- 0.75 mM); type: functional
Mus musculus [25] = test: Antiobesity activity in diet-induced obese C57Bl/6 mouse assessed as reduction in HOMA-IR value at 50 mg/kg/day, po for 4 weeks administered with high-fat diet (reference value: 0.94 +/- 0.23 no_unit); type: functional
[26] = Cmax in Sprague-Dawley rat at 20 mg/kg, po; type: ADME, organism-based; parameters: dose 20 mg/kg, route oral; details: in vivo
[27] = Solubility of the compound at room temperature; type: physicochemical
Mus musculus [28] = test: Antiobesity activity in diet-induced obese C57Bl/6 mouse assessed as reduction in FFA level at 20 mg/kg/day, po for 4 weeks administered with high-fat diet (reference value: 25.07 +/- 3.49 ng/L); type: functional
Mus musculus [29] = test: Antiobesity activity in diet-induced obese C57Bl/6 mouse assessed as loss of liver weight at 50 mg/kg/day, po for 4 weeks administered with high-fat diet; type: functional
Mus musculus [30] = test: Antiobesity activity in diet-induced obese C57Bl/6 mouse assessed as reduction in body weight at 50 mg/kg/day, po for 4 weeks administered with high-fat diet; type: functional; parameters: scale not given: the % may be the effect or the level left
Mus musculus [31] = test: Antiobesity activity in diet-induced obese C57Bl/6 mouse assessed as increase in HDL level at 50 mg/kg/day, po for 4 weeks administered with high-fat diet (reference value: 1.02 +/- 0.13 mM); type: functional
Mus musculus [32] = test: Antiobesity activity in diet-induced obese C57Bl/6 mouse assessed as loss of liver weight at 150 mg/kg/day, po for 4 weeks administered with high-fat diet; type: functional
[33] = Total clearance in Sprague-Dawley rat at 20 mg/kg, po; type: ADME, organism-based; parameters: dose 20 mg/kg, route oral; details: in vivo
[34] = Oral bioavailability in Sprague-Dawley rat at 20 mg/kg; type: ADME, organism-based; details: in vivo
[35] = Half life in Sprague-Dawley rat at 5 mg/kg, iv; type: ADME, organism-based; parameters: dose 5 mg/kg, route intravenous; details: in vivo
Mus musculus [36] = test: Toxicity in diet-induced obese C57Bl/6 mouse assessed as change in ALT level at 20 mg/kg/day, po for 4 weeks administered with high-fat diet (reference value: 29.6 +/- 8.29 U/L); type: organism-based; parameters: route oral; details: in vivo, 672 h
Mus musculus [37] = test: Antiobesity activity in diet-induced obese C57Bl/6 mouse assessed as change in insulin level at 20 mg/kg/day, po for 4 weeks administered with high-fat diet (reference value: 4.31 +/- .82 mU); type: functional
Mus musculus [38] = test: Antiobesity activity in diet-induced obese C57Bl/6 mouse assessed as loss of epididymal fat mass at 150 mg/kg/day, po for 4 weeks administered with high-fat diet; type: functional
Mus musculus [39] = test: Toxicity in diet-induced obese C57Bl/6 mouse assessed as change in AST level at 50 mg/kg/day, po for 4 weeks administered with high-fat diet (reference value: 128.00 +/- 20.59 U/L); type: organism-based; parameters: route oral; details: in vivo, 672 h
[40] = Volume of distribution in Sprague-Dawley rat at 5 mg/kg, iv; type: ADME, organism-based; parameters: dose 5 mg/kg, route intravenous; details: in vivo
[41] = AUC (0 to t) in Sprague-Dawley rat at 20 mg/kg, po; type: ADME, organism-based; parameters: dose 20 mg/kg, route oral; details: plasma
Mus musculus [42] = test: Antiobesity activity in diet-induced obese C57Bl/6 mouse assessed as increase in HDL level at 20 mg/kg/day, po for 4 weeks administered with high-fat diet (reference value: 1.02 +/- 0.13 mM); type: functional

With CCn1c(-c2ccc(OCCN(C)c3ccccn3)cc2)nc2c1c(=O)n(Cc1ccccc1C#N)c(=O)n2C.Cl the Activity (Mus musculus [1]) was 18.18%, the Activity (Mus musculus [2]) was 1.25 mM and the Tmax [3] was 2.79 h. It also gave an Activity (Mus musculus [4]) of 8.42 mM, an Activity (Mus musculus [5]) of 4.76 mU and a Cmax [6] of 1740 ng/mL. It also gave an Activity (Mus musculus [7]) of 12.86%, an Activity (Mus musculus [8]) of 0.22 mM and an AUC(0-t) [9] of 1780 ng·h/mL. The Activity (Mus musculus [10]) was 0.17 mM, the Activity (Mus musculus [11]) was “Non-toxic” and the half-life [12] was 6.97 h. The clearance [13] was 47.1 mL/min/kg, the Activity (Mus musculus [14]) was 18.86 U/L and the Activity (Mus musculus [15]) was 56.2%. For the same compound, the Activity (Mus musculus [16]) was 2.98, the Activity (Mus musculus [17]) was 20% and the Activity (Mus musculus [18]) was 0.94 mM. For the same compound, the Activity (Mus musculus [19]) was 25.73 ng/L, the Tmax [20] was 4.98 min and the Activity (Mus musculus [21]) was 16.8%. It also gave an Activity (Mus musculus [22]) of 21.59%, an Activity (Mus musculus [23]) of 125.71 U/L and a Vd (Rattus norvegicus) of 67.208 L/kg. It also gave an Activity (Mus musculus [24]) of 7.76 mM, an Activity (Mus musculus [25]) of 1.59 and a Cmax [26] of 465 ng/mL. The solubility [27] was 3280 µg/mL, the Activity (Mus musculus [28]) was 26.8 ng/L and the Activity (Mus musculus [29]) was 22.67%. For the same compound, the Activity (Mus musculus [30]) was 15.08%, the Activity (Mus musculus [31]) was 1.38 mM and the Activity (Mus musculus [32]) was 22%. The CL/F [33] was 139 mL/min/kg, the bioavailability [34] was 58.9% and the half-life [35] was 5.82 h. It also gave an Activity (Mus musculus [36]) of 24 U/L, an Activity (Mus musculus [37]) of 7.48 mU and an Activity (Mus musculus [38]) of 9.92%. For the same compound, the Activity (Mus musculus [39]) was 131.43 U/L, the Vd [40] was 23.6 L/kg and the AUC(0-t) [41] was 4190 ng·h/mL. It also gave an Activity (Mus musculus [42]) of 1.31 mM.

— ChEMBL document CHEMBL3352801, “Synthesis and lipid-lowering evaluation of 3-methyl-1H-purine-2,6-dione derivatives as potent and orally available anti-obesity agents” (Eur J Med Chem, 2014)
